The values below come from patent publication US7678799B2 (Teva Pharmaceutical Industries Ltd., priority 2003, dated 2010).

Where a name gives a salt, the structure may show the parent alone.

Series [1] in a line: Specific surface area measurement (BET, Coulter SA3100). Format: physicochemical. The following applies: for Specific surface area: BET. An excerpt:
Preferably, the SSA is about 5 to about 20 m^2/g.
Specific surface area measurement: • Instrument: Coulter SA3100 • Degassing: without • Sensitivity: high • Calculation: BET • Type: multipoint • Points: 10 • Sample cell: 9 and 12cm^3

The nature of series [2]: Storage stability at 25, 40 and 55° C., crystal form by XRD. The series is classed as physicochemical. An excerpt:
(§1) Ziprasidone HCl Form M, however, converts to the anhydrous form under heating (see table 1 and FIG. 8) or exposure to 0% relative humidity (see table 6 and FIG. 10).
(§2) This crystalline form may be sesquihydrate.
(§3) X-Ray powder diffraction data were obtained using by method known in the art using a SCINTAG powder X-Ray diffractometer model X'TRA equipped with a solid state detector. Copper radiation of 1.5418 Å was used. A round aluminum sample holder with round zero background quartz plate, with cavity of 25(diameter)*0.5(dept) mm. Detection limit: 5%.

Series [3] is described as follows: Storage at 0% relative humidity, crystal form by XRD. The series is classed as physicochemical. The note with it: for transformed into Form M upon exposure to 0% relative humidity: 0% humidity, prolonged periods (such as 3 weeks).
Excerpt: (§4) In addition, no more than 5% of Form A transforms into Form M during heating and also during exposure to 0% relative humidity.
as §1, §2, §3

Series [4] in a line: Slurry of Form A in water or ethanol, transformation to Form M. Format: physicochemical.
Series [5] is described as follows: Heating of crystalline ziprasidone HCl forms, crystal form by XRD. Format: physicochemical. The note with it: for Crystal form after heating at 80-105° C. overnight: HCl.
Excerpt: as §4, §3

Series [6] can be described thus: Equilibration of ziprasidone HCl form E at different relative humidities for 22 days (TGA, XRD). The series is classed as physicochemical. The following applies: for TGA weight loss (water uptake) / Crystal form: 22 days. On the procedure: The slurry temperature is preferably at least about 40° C. when using THF.
as §3
TGA analysis was done using a Mettler M3 meter. The weight of the samples was about 10 mg; the samples were scanned at a rate of 10° C./min from 25° C. to 200° C. The oven was constantly purged with nitrogen gas at a flow rate of 40 ml/min. Standard 70 μl alumina crucibles covered by lids with 1 hole were used.

The conditions of series [7]: cited from earlier work.

In the case of `O=C1Cc2cc(CCN3CCN(c4nsc5ccccc45)CC3)c(Cl)cc2N1` [Example 17, ziprasidone HCl], the Specific surface area in series [1] (cell volume = 12 cm^3, HCl) came out at 14.646 m^2/g; in series [1] (cell volume = 12 cm^3, listed as Sample prepared according to example 17, HCl), 14.646 m^2/g.

In the case of `O=C1Cc2cc(CCN3CCN(c4nsc5ccccc45)CC3)c(Cl)cc2N1` [Example 16, ziprasidone HCl], the Specific surface area was 5.461 m^2/g in series [1] (cell volume = 9 cm^3, HCl) and 5.461 m^2/g in series [1] (cell volume = 9 cm^3, listed as Sample prepared according to example 16, HCl).

For the molecule `O=C1Cc2cc(CCN3CCN(c4nsc5ccccc45)CC3)c(Cl)cc2N1` [Example 18, ziprasidone HCl], the Specific surface area in series [1] (cell volume = 12 cm^3, HCl) came out at 18.831 m^2/g; in series [1] (cell volume = 12 cm^3, listed as Sample prepared according to example 18, HCl) it was 18.831 m^2/g.

In the case of `O=C1Cc2cc(CCN3CCN(c4nsc5ccccc45)CC3)c(Cl)cc2N1` [Example 19, ziprasidone HCl], the Specific surface area is 11.335 m^2/g in series [1] (cell volume = 9 cm^3, HCl) and 11.335 m^2/g in series [1] (cell volume = 9 cm^3, listed as Sample prepared according to example 19, HCl).

With `O=C1Cc2cc(CCN3CCN(c4nsc5ccccc45)CC3)c(Cl)cc2N1` [Example 15, ziprasidone HCl, reference compound], the Specific surface area in series [1] (cell volume = 9 cm^3, HCl) amounted to 3.908 m^2/g; in series [1] (cell volume = 9 cm^3, listed as Repetition of U.S. Pat. No. 6,150,366 procedure (comparative example 15), HCl) it was 3.908 m^2/g.

For the molecule `O=C1Cc2cc(CCN3CCN(c4nsc5ccccc45)CC3)c(Cl)cc2N1` [Repetition of U.S. Pat. No. 6,150,366 Example 10] [ziprasidone HCl, reference compound], the Specific surface area in series [1] (cell volume = 9 cm^3, HCl) is on record as 2.135 m^2/g.

Take `O=C1Cc2cc(CCN3CCN(c4nsc5ccccc45)CC3)c(Cl)cc2N1` [Form A, ziprasidone HCl]: in series [2] (40° C., 75% RH, at least about 6 months), the “transformed into Form M upon storage under accelerated aging conditions” value is “no more than 5%”. In series [1] (as measured by BET, general statement), the “specific surface area (SSA)” value is reported as “higher than 4 m^2/g”. Also, in series [3] (HCl), the “transformed into Form M upon exposure to 0% relative humidity” value is listed as “no more than 5%” and the “Crystal form upon storage at 0% relative humidity” value is recorded as “Form A”. In addition, the “transforms to Form M” value in series [4] (ethanol slurry) is given as 95%. Moreover, in series [4] (slurried in water), the “Form A transformed into Form M” value is on record as “no more than 5%”. Moreover, in series [5], the “temperature of heating without a change in the crystal structure” value is “up to 140 °C” and the “Crystal form after heating at 80-105° C. overnight” value is “Form A”. Besides, the “Form A transformed into Form M during heating” value in series [5] (heating) is on record as “no more than 5%”.

For the molecule `O=C1Cc2cc(CCN3CCN(c4nsc5ccccc45)CC3)c(Cl)cc2N1` [Form E, ziprasidone HCl], the “TGA weight loss (water uptake)” value stood at 5.3% in series [6] (RH 0%); 7.2% in series [6] (RH 20%); 4.8% in series [6] (RH 40%); 5.0% in series [6] (RH 60%); 9.2% in series [6] (RH 80%). Besides, the Crystal form result in series [6] (RH 80%) is listed as “M + A”; in series [6] (RH 100%) it was “M + A + amorphous”. In addition, the “crystal form after exposure to relative humidity” value in series [6] (relative humidity of about 20% to about 60% for about 22 days) is listed as “Form A”.

As for `O=C1Cc2cc(CCN3CCN(c4nsc5ccccc45)CC3)c(Cl)cc2N1` [Repetition of U.S. Pat. No. 5,312,925 Example 2] [ziprasidone HCl, reference compound], the Specific surface area in series [1] (cell volume = 9 cm^3, HCl) is recorded as 3.909 m^2/g.

Turning to `O=C1Cc2cc(CCN3CCN(c4nsc5ccccc45)CC3)c(Cl)cc2N1` [Crystalline ziprasidone HCl having a water content of 4.6-6.], the “transforms into Form M upon storage” value in series [2] (25, 40 and 55° C. for at least 3 months) is listed as “No more than 5%”. In series [3] (listed as solid crystalline ziprasidone HCl having a water content of about 4.6% to about ), the “transformed into Form M upon exposure to 0% relative humidity” value is “No more than 5%”.

As for `O=C1Cc2cc(CCN3CCN(c4nsc5ccccc45)CC3)c(Cl)cc2N1` [Form M, ziprasidone HCl, reference compound], the “Crystal form upon storage at 0% relative humidity” value in series [3] (HCl) is on record as “Anhydrous”. Also, the “Crystal form after heating at 80-105° C. overnight” value in series [5] is “Anhydrous”.

As to `O=C1Cc2cc(CCN3CCN(c4nsc5ccccc45)CC3)c(Cl)cc2N1` [Ziprasidone HCl], the solubility in water in series [7] was 80 µg/mL.
